From article PMC4559029 (Cancer Medicine, 2015)

Key:
[1] = published QT results for ondansetron; type: in vivo; details: 24 mg ondansetron, inferred by authors from published 32 mg data
Protocol: The majority of patients (18/26) received ondansetron 24 mg IV.

[2] = design: method as in earlier work; details: ondansetron 32 mg IV; cited from earlier work
[3] = tested on: patients with advanced malignancy; experiment: centrally read ECG analysis (QTcF, PR, QRS, heart rate) in patients with advanced malignancy
Protocol: All patients provided written informed consent.
PK/PD modeling is not reported as it was not possible to account for the possible effects of coadministered antiemetics and the absence of closely collected ECGs during times of PK sampling when rapid changes in the plasma concentrations occurred. For the central tendency and categorical analyses, the mean of the three replicates was used. All paper ECGs were analyzed by a core central ECG laboratory (Duke Clinical Research Institute [DCRI], Durham, NC) in a fully blinded fashion. A DCRI technician marked the fiducial points on each ECG tracing and, using a digital caliper, measured the QT, PR, RR, and QRS intervals. All ECGs were over read by a DCRI cardiologist for verification of the interval measurements.

clinical = details: human, plasma, intravenous
hERG-related current = details: at 10 μg/mL; ref data on file, Celgene Corporation; cited from earlier work
patients = details: early clinical development, across several studies; cited from earlier work

Which results are given for `Cc1nccn1CC1CCc2c(c3ccccc3n2C)C1=O` (stereo not shown) [ondansetron]?
QTc effect at 4 h [1]: < 5 ms; increase in QTc at 4 h [2]: ≈ 6 msec; initial increase in QTc [2]: ≈ 20 msec

Which results are given for `C/C=C1\NC(=O)[C@H]2CSSCC/C=C/[C@H](CC(=O)N[C@H](C(C)C)C(=O)N2)OC(=O)[C@H](C(C)C)NC1=O` [romidepsin]?
upper 90% CI of maximal mean QTcF increase from preantiemetic baseline ([3]; 14 mg/m^2 4-h infusion, at 0.25 h postinitiation): 14.5 ms; increase in heart rate ([3]; human, in vivo): ≈ 20 bpm; patients with absolute QTcF value >450 msec ([3]; human, in vivo): No patient; AUC(0-inf) (clinical; 8 mg/m^2): 1350 ng·h/mL; Cmax (clinical; 8 mg/m^2): 1110 ng/mL; half-life (clinical; 8 mg/m^2): 4.82 h; Cmax (clinical; 10 mg/m^2): 1480 ng/mL; half-life (clinical; 10 mg/m^2): 4.94 h; AUC(0-inf) (clinical; 12 mg/m^2): 3010 ng·h/mL; Cmax (clinical; 12 mg/m^2): 2090 ng/mL; half-life (clinical; 12 mg/m^2): 4.32 h; AUC(0-inf) (clinical; 14 mg/m^2): 3070 ng·h/mL; Cmax (clinical; 14 mg/m^2): 780 ng/mL; half-life (clinical; 14 mg/m^2): 3.7 h; inhibition of hERG-related current (hERG-related current): 37%; patients with sudden death (patients): six
